Test system: 485176-168-R4-J1-PDC spheroids with HUVEC/MSC, viability
Assay: Anticancer human tumor 485176-168-R4-J1-PDC patient-derived pancreatic adenocarcinoma cell line growth inhibition [GQUAD]
Details: for IC50: curve of first compound; for viability, T/C: stronger effect = lower value
How it was run: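 Viability of tumor cells grown as complex spheroids with endothelial and stromal cells, exposed to drug combinations. Top concentration at or near clinical Cmax (else 10 microM), diluted in half-log increments.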

[1] = second compound 0.0316 µM, first compound 0.0316 µM
[2] = second compound 0.0316 µM, first compound 0.1 µM
[3] = second compound 0.0316 µM, first compound 0.316 µM
[4] = second compound 0.0316 µM, first compound 1 µM
[5] = second compound 0.0316 µM, first compound 3.16 µM
[6] = second compound 0.0316 µM, first compound 10 µM
[7] = second compound 0.1 µM, first compound 0.0316 µM
[8] = second compound 0.1 µM, first compound 0.1 µM
[9] = second compound 0.1 µM, first compound 0.316 µM
[10] = second compound 0.1 µM, first compound 1 µM
[11] = second compound 0.1 µM, first compound 3.16 µM
[12] = second compound 0.1 µM, first compound 10 µM
[13] = second compound 0.316 µM, first compound 0.0316 µM
[14] = second compound 0.316 µM, first compound 0.1 µM
[15] = second compound 0.316 µM, first compound 0.316 µM
[16] = second compound 0.316 µM, first compound 1 µM
[17] = second compound 0.316 µM, first compound 3.16 µM
[18] = second compound 0.316 µM, first compound 10 µM
[19] = second compound 1 µM, first compound 0.0316 µM
[20] = second compound 1 µM, first compound 0.1 µM
[21] = second compound 1 µM, first compound 0.316 µM
[22] = second compound 1 µM, first compound 1 µM
[23] = second compound 1 µM, first compound 3.16 µM
[24] = second compound 1 µM, first compound 10 µM
[25] = second compound 3.16 µM, first compound 0.0316 µM
[26] = second compound 3.16 µM, first compound 0.1 µM
[27] = second compound 3.16 µM, first compound 0.316 µM
[28] = second compound 3.16 µM, first compound 1 µM
[29] = second compound 3.16 µM, first compound 3.16 µM
[30] = second compound 3.16 µM, first compound 10 µM
[31] = second compound 10 µM, first compound 0.0316 µM
[32] = second compound 10 µM, first compound 0.1 µM
[33] = second compound 10 µM, first compound 0.316 µM
[34] = second compound 10 µM, first compound 1 µM
[35] = second compound 10 µM, first compound 3.16 µM
[36] = second compound 10 µM, first compound 10 µM
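Also: spheroids exposed to compounds for seven days before readout.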
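For viability, T/C in this document: percent viability relative to DMSO vehicle control wells as 100%.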

COc1ccc([C@@H](O)c2cc(-c3ncnc4cc(N5CCOCC5)ccc34)c(F)cc2Cl)nn1 + Cc1[nH]c2ccc(F)cc2c1-c1nc2c3cccnc3c3ncccc3c2[nH]1
IC50 (second compound 0.0316 µM): 3020 nM
IC50 (second compound 0.1 µM): 2690 nM
IC50 (second compound 0.316 µM): 3660 nM
IC50 (second compound 1 µM): 2520 nM
IC50 (second compound 3.16 µM): 1850 nM
IC50 (second compound 10 µM): 1760 nM
viability, T/C [1]: 83.4%
viability, T/C [2]: 98.8%
viability, T/C [3]: 91.8%
viability, T/C [4]: 69.8%
viability, T/C [5]: 51.6%
viability, T/C [6]: 31.4%
viability, T/C [7]: 91.9%
viability, T/C [8]: 90.2%
viability, T/C [9]: 94.7%
viability, T/C [10]: 68.6%
viability, T/C [11]: 48.7%
viability, T/C [12]: 27.7%
viability, T/C [13]: 91.2%
viability, T/C [14]: 88.9%
viability, T/C [15]: 82%
viability, T/C [16]: 86.6%
viability, T/C [17]: 53.2%
viability, T/C [18]: 28.1%
viability, T/C [19]: 81%
viability, T/C [20]: 79%
viability, T/C [21]: 94.2%
viability, T/C [22]: 66.5%
viability, T/C [23]: 46.5%
viability, T/C [24]: 22.4%
viability, T/C [25]: 98.5%
viability, T/C [26]: 87.9%
viability, T/C [27]: 74.4%
viability, T/C [28]: 63.2%
viability, T/C [29]: 39.1%
viability, T/C [30]: 21.3%
viability, T/C [31]: 97.4%
viability, T/C [32]: 78.3%
viability, T/C [33]: 76%
viability, T/C [34]: 56%
viability, T/C [35]: 45.7%
viability, T/C [36]: 21.1%

CCCS(=O)(=O)Nc1ccc(F)c(C(=O)c2c[nH]c3ncc(-c4ccc(Cl)cc4)cc23)c1F + CN(C)c1ccc(Nc2c3ccc(NC(=O)CCN4CCCC4)cc3nc3cc(NC(=O)CCN4CCCC4)ccc23)cc1
IC50 (second compound 0.0316 µM): > 10000 nM
IC50 (second compound 0.1 µM): > 10000 nM
IC50 (second compound 0.316 µM): > 10000 nM
IC50 (second compound 1 µM): > 10000 nM
IC50 (second compound 3.16 µM): > 10000 nM
IC50 (second compound 10 µM): 6500 nM
viability, T/C [1]: 87.4%
viability, T/C [2]: 81.9%
viability, T/C [3]: 91.6%
viability, T/C [4]: 86.4%
viability, T/C [5]: 86.3%
viability, T/C [6]: 70.1%
viability, T/C [7]: 100%
viability, T/C [8]: 99%
viability, T/C [9]: 83.2%
viability, T/C [10]: 73.6%
viability, T/C [11]: 94.3%
viability, T/C [12]: 60%
viability, T/C [13]: 97.5%
viability, T/C [14]: 95%
viability, T/C [15]: 91.1%
viability, T/C [16]: 77.2%
viability, T/C [17]: 90.8%
viability, T/C [18]: 63.7%
viability, T/C [19]: 76.3%
viability, T/C [20]: 86.8%
viability, T/C [21]: 105%
viability, T/C [22]: 94.8%
viability, T/C [23]: 82.5%
viability, T/C [24]: 65.3%
viability, T/C [25]: 91.8%
viability, T/C [26]: 87.6%
viability, T/C [27]: 78.8%
viability, T/C [28]: 81.3%
viability, T/C [29]: 81.2%
viability, T/C [30]: 51.3%
viability, T/C [31]: 76.6%
viability, T/C [32]: 83.7%
viability, T/C [33]: 65.4%
viability, T/C [34]: 70.6%
viability, T/C [35]: 63.3%
viability, T/C [36]: 42.7%

CC1COCCN1c1cc(C2(S(C)(=N)=O)CC2)nc(-c2ccnc3[nH]ccc23)n1 (stereo unspecified) + Cc1cnc(CNC(=O)c2c(=O)c3ccc(N4CCCN(C)CC4)nc3n3c2sc2ccccc23)cn1
IC50 (second compound 0.0316 µM): 2310 nM
IC50 (second compound 0.1 µM): 1010 nM
IC50 (second compound 0.316 µM): 196 nM
IC50 (second compound 1 µM): 53.5 nM
IC50 (second compound 3.16 µM): < 31.6 nM
IC50 (second compound 10 µM): < 31.6 nM
viability, T/C [1]: 96.4%
viability, T/C [2]: 82.9%
viability, T/C [3]: 89.2%
viability, T/C [4]: 44.8%
viability, T/C [5]: 59%
viability, T/C [6]: 15.1%
viability, T/C [7]: 73.8%
viability, T/C [8]: 82.6%
viability, T/C [9]: 53.6%
viability, T/C [10]: 39.7%
viability, T/C [11]: 51%
viability, T/C [12]: 12.1%
viability, T/C [13]: 54%
viability, T/C [14]: 62.7%
viability, T/C [15]: 47.2%
viability, T/C [16]: 28.2%
viability, T/C [17]: 36.4%
viability, T/C [18]: 11.9%
viability, T/C [19]: 50.3%
viability, T/C [20]: 51.5%
viability, T/C [21]: 41.6%
viability, T/C [22]: 28.9%
viability, T/C [23]: 36.8%
viability, T/C [24]: 11.9%
viability, T/C [25]: 45.8%
viability, T/C [26]: 41.6%
viability, T/C [27]: 38.5%
viability, T/C [28]: 23.9%
viability, T/C [29]: 28.7%
viability, T/C [30]: 11%
viability, T/C [31]: 41.4%
viability, T/C [32]: 36.7%
viability, T/C [33]: 37.1%
viability, T/C [34]: 27.5%
viability, T/C [35]: 28.1%
viability, T/C [36]: 12.8%
